Test results: BigSolDB 2.1

O=C(O)[C@@H]1CSCN1
solubility (mole fraction) (in 1,4-dioxane, 288.15 K): 0.00035 | solubility (mole fraction) (in 1,4-dioxane, 293.15 K): 0.000384 | solubility (mole fraction) (in 1,4-dioxane, 303.15 K): 0.000477 | solubility (mole fraction) (in 1,4-dioxane, 313.15 K): 0.000589 | solubility (mole fraction) (in 1,4-dioxane, 323.15 K): 0.000708 | solubility (mole fraction) (in acetone, 283.15 K): 0.00018 | solubility (mole fraction) (in acetone, 293.15 K): 0.000298 | solubility (mole fraction) (in acetone, 303.15 K): 0.000537 | solubility (mole fraction) (in acetone, 313.15 K): 0.00135 | solubility (mole fraction) (in acetone, 323.15 K): 0.00343 | solubility (mole fraction) (in acetonitrile, 283.15 K): 2.2e-05 | solubility (mole fraction) (in acetonitrile, 293.15 K): 3e-05 | solubility (mole fraction) (in acetonitrile, 303.15 K): 4.8e-05 | solubility (mole fraction) (in acetonitrile, 313.15 K): 6.8e-05 | solubility (mole fraction) (in acetonitrile, 323.15 K): 9.1e-05 | solubility (mole fraction) (in dichloromethane, 283.15 K): 1.5e-05 | solubility (mole fraction) (in dichloromethane, 288.15 K): 5.1e-05 | solubility (mole fraction) (in dichloromethane, 293.15 K): 0.000134 | solubility (mole fraction) (in dichloromethane, 298.15 K): 0.000208 | solubility (mole fraction) (in dichloromethane, 303.15 K): 0.000292 | solubility (mole fraction) (in ethanol, 283.15 K): 9e-05 | solubility (mole fraction) (in ethanol, 293.15 K): 0.000125 | solubility (mole fraction) (in ethanol, 303.15 K): 0.00018 | solubility (mole fraction) (in ethanol, 313.15 K): 0.000254 | solubility (mole fraction) (in ethanol, 323.15 K): 0.000348 | solubility (mole fraction) (in ethyl acetate, 283.15 K): 2.3e-05 | solubility (mole fraction) (in ethyl acetate, 293.15 K): 7.2e-05 | solubility (mole fraction) (in ethyl acetate, 303.15 K): 0.000158 | solubility (mole fraction) (in ethyl acetate, 313.15 K): 0.000297 | solubility (mole fraction) (in ethyl acetate, 323.15 K): 0.000471 | solubility (mole fraction) (in isopropanol, 283.15 K): 3.7e-05 | solubility (mole fraction) (in isopropanol, 293.15 K): 6.8e-05 | solubility (mole fraction) (in isopropanol, 303.15 K): 9.8e-05 | solubility (mole fraction) (in isopropanol, 313.15 K): 0.000127 | solubility (mole fraction) (in isopropanol, 323.15 K): 0.00019 | solubility (mole fraction) (in methanol, 283.15 K): 5.5e-05 | solubility (mole fraction) (in methanol, 293.15 K): 7.4e-05 | solubility (mole fraction) (in methanol, 303.15 K): 0.000112 | solubility (mole fraction) (in methanol, 313.15 K): 0.000209 | solubility (mole fraction) (in methanol, 323.15 K): 0.000315 | solubility (mole fraction) (in water, 283.15 K): 0.00296 | solubility (mole fraction) (in water, 293.15 K): 0.00383 | solubility (mole fraction) (in water, 303.15 K): 0.00502 | solubility (mole fraction) (in water, 313.15 K): 0.0062 | solubility (mole fraction) (in water, 323.15 K): 0.00773
